Test results taken from patent publication US11851418B2, “Heteroaromatic carboxamide derivatives as plasma kallikrein inhibitors” (Boehringer Ingelheim International GmbH, priority 2020, dated 2023).

Tests used:
Assay type in all cases: biochemical
[1] = biological target: T1, PKK in kaolin activated human platelet poor plasma (Homo sapiens, UniProt P03952); assay: Inhibition of PKK in kaolin activated human PPP; details: kaolin (25, 75, 250, 750 μg/mL) activated human PPP, global fit
T1 construct: Platelet poor plasma (PPP) obtained from human wholeblood; from tissue
Procedure: Platelet poor plasma (PPP) obtained from human wholeblood, anticoagulated with Na-Citrate, is incubated with various concentrations of the test compound together with either 25, 75, 250, or 750 μg/mL kaolin in assay buffer for 20 min at 37° C. such that for each kaolin dose used a concentration response is obtained for the test compound.

Human PKK = biological target: T2, Human PKK (Homo sapiens, UniProt P03952); assay: Inhibition of PKK using an endpoint assay; details: fluorogenic substrate H-Pro-Phe-Arg-AMC, 1 h at room temperature
T2 construct: purchased Enzyme Research Laboratories
Procedure: (§1) The ability of compounds of formula (I) to inhibit plasma kallikrein (PKK), Factor XIIa (FXIIa), Factor XIa (FXIa), Factor Xa (FXa), Factor IIa (alpha-thrombin; FIIa), plasmin, trypsin, tissue kallikrein 1 (TK1), Factor Vila (FVIIa), or FVIIa complexed with Tissue Factor, phospholipids and CaCl2 (FVIIa/TF/PL/CaCl2) is determined using the following biochemical assays in assay buffer (100 mM Tris, 150 mM NaCL, adjusted to a pH of 7.8 with HCl, and containing 0.1% (w/v) BSA and 0.05% (v/v) Tween20) in the presence of 1% (v/v) DMSO:
Subsequently, PPACK 11 (Calbiochem) is added as a stop solution to achieve a final concentration of 1 μM and fluorescence is measured using an Envision Reader (PerkinElmer) with the wavelength excitation setting of 355 nm and the wavelength emission setting of 460 nm.

human TK1 = biological target: T3, human TK1 (Homo sapiens, UniProt P06870); assay: Inhibition of TK1 (Ki); details: activated human TK1, substrate H-Pro-Phe-Arg-AMC, 24° C.; Ki from IC50 corrected for KM
T3 construct: purchased R&D Systems
Procedure: as §1
Prior to the assay, human TK1 (R&D Systems) is activated by incubation with human trypsin (Calbiochem) in a 1:10,000 ratio for 15 min at 37° C. For assaying TK1 inhibitory activity, activated TK1 (31.25 nM or 1 U/mL) is incubated at 24° C. with 0.1 mM fluorogenic substrate H-Pro-Phe-Arg-AMC (I1295 from Bachem) and various concentrations of the test compound in assay buffer. Measurements are performed in a kinetic interval every 2nd minute for 16 min using a Spectramax M5 (Molecular Devices) with the following settings of the wavelength excitation of 350 nm and wavelength emission of 450 nm.
The pIC50 values are then fitted using a four-parametric fitting procedure using GraphPad Prism (version 6; GraphPad Software, Inc.). […]

T2 sequence (P03952 391-638 limits assumed): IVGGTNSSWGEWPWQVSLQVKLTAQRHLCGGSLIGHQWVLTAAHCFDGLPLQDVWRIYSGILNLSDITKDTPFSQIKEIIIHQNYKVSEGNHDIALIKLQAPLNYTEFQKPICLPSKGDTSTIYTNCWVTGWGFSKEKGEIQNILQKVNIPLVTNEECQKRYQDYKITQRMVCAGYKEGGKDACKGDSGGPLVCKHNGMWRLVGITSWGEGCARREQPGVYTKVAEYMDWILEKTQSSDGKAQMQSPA
T2 sequence (P03952 20-390 partner limits assumed): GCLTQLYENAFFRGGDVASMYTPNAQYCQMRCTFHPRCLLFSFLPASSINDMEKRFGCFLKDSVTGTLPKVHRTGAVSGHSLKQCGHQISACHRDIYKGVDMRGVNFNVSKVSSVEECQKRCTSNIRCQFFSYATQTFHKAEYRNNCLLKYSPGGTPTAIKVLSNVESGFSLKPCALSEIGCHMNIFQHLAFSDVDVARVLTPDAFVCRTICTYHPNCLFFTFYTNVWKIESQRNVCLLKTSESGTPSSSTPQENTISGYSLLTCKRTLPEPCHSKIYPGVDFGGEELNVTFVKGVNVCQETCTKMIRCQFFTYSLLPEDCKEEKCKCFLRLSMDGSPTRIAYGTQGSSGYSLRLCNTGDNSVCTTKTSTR
T1 sequence (P03952 391-638 limits assumed): as the sequence (P03952 391-638 limits assumed) above
T1 sequence (P03952 20-390 partner limits assumed): as the sequence (P03952 20-390 partner limits assumed) above
T3 sequence (P06870 25-262): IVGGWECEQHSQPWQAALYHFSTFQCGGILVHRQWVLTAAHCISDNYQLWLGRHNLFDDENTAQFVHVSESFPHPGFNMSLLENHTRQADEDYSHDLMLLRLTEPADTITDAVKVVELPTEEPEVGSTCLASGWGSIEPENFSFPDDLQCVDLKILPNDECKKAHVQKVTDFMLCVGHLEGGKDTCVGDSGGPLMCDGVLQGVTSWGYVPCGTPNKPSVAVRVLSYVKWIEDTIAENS

IC90 [1] [nM] | IC50 (Human PKK) [nM] | Ki (human TK1) [nM] | SMILES
499 | 1.8 | – | Cc1[nH]nc2c1CC[C@H]2NC(=O)c1cnn(Cc2cnc(N3CC4CC4C3)nc2C(F)F)c1 (stereo partly drawn) [Example 2, 1-[(2-{3-Azabicyclo[3.1.0]hexan-3-yl}-4-(difluoromethyl)-pyrimidin-5-yl)methyl]-N-[(6R)-3-methyl-2H,4H,5H,6H-cyclopenta[c]pyrazol-6-yl]-1H-pyrazole-4-carboxamide]
486 | 0.9 | – | Cc1[nH]nc2c1CC[C@H]2NC(=O)c1cn(Cc2ccc(N3CC4CC4C3)nc2C(F)F)nn1 (stereo partly drawn) [Example 3, 1-[(6-{3-Azabicyclo[3.1.0]hexan-3-yl}-2-(difluoromethyl)-pyridin-3-yl)methyl]-N-[(6R)-3-methyl-2H,4H,5H,6H-cyclo-penta[c]pyrazol-6-yl]-1H-1,2,3-triazole-4-carboxamide]
195 | – | – | Cc1[nH]nc2c1CC[C@H]2NC(=O)c1cnn(Cc2ccc(N3CC4CC4C3)nc2C(F)F)c1 (stereo partly drawn) [Example 7, 1-[(6-{3-Azabicyclo[3.1.0]hexan-3-yl}-2-(difluoromethyl)-pyridin-3-yl)methyl]-N-[(6R)-3-methyl-2H,4H,5H,6H-cyclopenta[c]pyrazol-6-yl]-1H-pyrazole-4-carboxamide]
305 | 2.1 | – | Cc1[nH]nc2c1CC[C@H]2NC(=O)c1cn(Cc2cnc(N3CC4CC4C3)nc2C(F)F)cn1 (stereo partly drawn) [Example 8, 1-[(2-{3-Azabicyclo[3.1.0]hexan-3-yl}-4-(difluoromethyl)-pyrimidin-5-yl)methyl]-N-[(6R)-3-methyl-2H,4H,5H,6H-cyclopenta[c]pyrazol-6-yl]-1H-imidazole-4-carboxamide]
– | 2.6 | – | Cc1[nH]nc2c1CC[C@H]2NC(=O)c1cnn(Cc2cnc(N3CC4CC4C3)cc2C(F)(F)F)c1 (stereo partly drawn) [Example 12, 1-[(6-{3-Azabicyclo[3.1.0]hexan-3-yl}-4-(trifluoromethyl)-pyridin-3-yl)methyl]-N-[(6R)-3-methyl-2H,4H,5H,6H-cyclopenta[c]pyrazol-6-yl]-1H-pyrazole-4-carboxamide]
746 | 1.9 | > 10000 | Cc1[nH]nc2c1CC[C@H]2NC(=O)c1cnn(Cc2ccc(N3CC4CC4C3)nc2C(F)(F)F)c1 (stereo partly drawn) [Example 13, 1-[(6-{3-Azabicyclo[3.1.0]hexan-3-yl}-2-(trifluoromethyl)pyridin-3-yl)methyl]-N-[(6R)-3-methyl-2H,4H,5H,6H-cyclopenta[c]pyrazol-6-yl]-1H-pyrazole-4-carboxamide]

More lines, now with the values behind:

SMILES | IC90 [1] [nM] | IC50 (Human PKK) [nM] | Ki (human TK1) [nM]
Cc1[nH]nc2c1CC[C@H]2NC(=O)c1cnn(Cc2ccc(N3CC4(CC4)C3)nc2C(F)F)c1 [Example 1, 1-[(6-{5-Azaspiro[2.3]hexan-5-yl}-2-(difluoromethyl)pyridin-3-yl)methyl]-N-[(6R)-3-methyl-2H,4H,5H,6H-cyclopenta[c]pyrazol-6-yl]-1H-pyrazole-4-carboxamide] | 182 | 0.8 | –
Cc1[nH]nc2c1CC[C@H]2NC(=O)c1cn(Cc2ccc(N3CC4(CC4)C3)nc2C(F)F)nn1 [Example 4, 1-[(6-{5-Azaspiro[2.3]hexan-5-yl}-2-(difluoromethyl)pyridin-3-yl)methyl]-N-[(6R)-3-methyl-2H,4H,5H,6H-cydopenta[c]-pyrazol-6-yl]-1H-1,2,3-triazole-4-carboxamide] | 122 | – | –
Cc1[nH]nc2c1CC[C@H]2NC(=O)c1cn(Cc2ccc(N3CC4(CC4)C3)nc2C(F)F)cn1 [Example 5, 1-[(6-{5-Azaspiro[2.3]hexan-5-yl}-2-(difluoromethyl)-pyridin-3-yl)methyl]-N-[(6R)-3-methyl-2H,4H,5H,6H-cyclopenta[c]pyrazol-6-yl]-1H-imidazole-4-carboxamide] | 149 | – | –
Cc1[nH]nc2c1CC[C@H]2NC(=O)c1cn(Cc2ccc(N3CC4CC4C3)nc2C(F)F)cn1 (stereo partly drawn) [Example 6, 1-[(6-{3-Azabicyclo[3.1.0]hexan-3-yl}-2-(difluoromethyl)-pyridin-3-yl)methyl]-N-[(6R)-3-methyl-2H,4H,5H,6H-cyclopenta[c]pyrazol-6-yl]-1H-imidazole-4-carboxamide] | 293 | – | –
Cc1[nH]nc2c1CC[C@H]2NC(=O)c1cn(Cc2cnc(N3CC4CC4C3)cc2C(F)(F)F)cn1 (stereo partly drawn) [Example 9, 1-[(6-{3-Azabicyclo[3.1.0]hexan-3-yl}-4-(trifluoromethyl)-pyridin-3-yl)methyl]-N-[(6R)-3-methyl-2H,4H,5H,6H-cyclopenta[c]pyrazol-6-yl]-1H-imidazole-4-carboxamide] | 539 | 1.8 | > 10000
Cc1[nH]nc2c1CC[C@H]2NC(=O)c1cnn(Cc2ccc(N3CC4C(C3)C4(F)F)nc2C(F)F)c1 (stereo partly drawn) [Example 10, 1-[(6-{6,6-Difluoro-3-azabicyclo[3.1.0]hexan-3-yl}-2-(difluoromethyl)pyridin-3-yl)methyl]-N-[(6R)-3-methyl-2H,4H,5H,6H-cyclopenta-[c]pyrazol-6-yl]-1H-pyrazole-4-carboxamide] | 242 | – | –
Cc1[nH]nc2c1CC[C@H]2NC(=O)c1cn(Cc2ccc(N3CC4C(C3)C4(F)F)nc2C(F)F)cn1 (stereo partly drawn) [Example 11, 1-[(6-{6,6-Difluoro-3-azabicyclo[3.1.0]hexan-3-yl}-2-(difluoromethyl)pyridin-3-yl)methyl]-N-[(6R)-3-methyl-2H,4H,5H,6H-cyclopenta-[c]pyrazol-6-yl]-1H-imidazole-4-carboxamide] | 236 | – | –
